Test results taken from US8741871B2, “Trehalose compound, method for producing same, and pharmaceutical product containing the compound” (priority 2008, dated 2014).

Experiments:
[1] = system: rabbit neutrophils; format: cell-based
[2] = system: Welch bacillus toxin (recombinant α-toxin); conditions: in vivo, ip
[3] = system: breast cancer cells (FM3A cells); format: in vivo; conditions: 100 μg/mouse i.p. twenty-four hours before FM3A inoculation, nineteen days later
Procedure: The 100 μg/mouse test compound obtained in Example 9 (emulsion solution) was intraperitoneally administered to each mouse, and twenty-four hours later, breast cancer cells (FM3A cells) were inoculated into the abdominal cavity thereof. Nineteen days later, the body weight of each mouse was measured. In addition, the tissue sections of diaphragm, pancreas and testis were subjected to HE staining, and they were then observed under a microscope. As a result, the body weight of the breast cancer cell-inoculated mouse was increased by approximately 10 g, when compared with a control mouse, and it was observed that the mouse contained a large amount of ascites fluid.

| SMILES | phagocytic ability of rabbit neutrophils, activity compared with TDCM [1] | Number of surviving mice/number of treated mice, 2 hours later [2] | Number of surviving mice/number of treated mice, 6 hours later [2] | Number of surviving mice/number of treated mice, 12 hours later [2] | Number of surviving mice/number of treated mice, 24 hours later [2] | Number of surviving mice/number of treated mice, 48 hours later [2] | body weight of breast cancer cell-inoculated mouse [3] | infiltration and metastasis of the cancer cells into various organs (diaphragm, pancreas, testis) ([3]; HE staining, FIG. 20) |
| --- | --- | --- | --- | --- | --- | --- | --- | --- |
| CCCCCCCCCCC(CCCCCCCCCC)C(=O)OCC1O[C@H](O[C@H]2OC(COC(=O)C(CCCCCCCCCC)CCCCCCCCCC)[C@@H](O)C(O)C2O)C(O)C(O)[C@@H]1O (stereo partly drawn) [Example 1, 6,6′-bis-O-(2-decyldodecanoyl)-α,α′-trehalose] | approximately 2 times | 4/4 | 4/4 | 4/4 | 3/4 | 3/4 | – | – |
| CCCCCCCCCC(CCCCCCCCC)CC(=O)OCC1O[C@H](O[C@H]2OC(COC(=O)CC(CCCCCCCCC)CCCCCCCCC)[C@@H](O)C(O)C2O)C(O)C(O)[C@@H]1O (stereo partly drawn) [Example 9, 6,6′-bis-O-(3-nonyldodecanoyl)-α,α′-trehalose] | – | – | – | – | – | – | equivalent to that of a control mouse | not observed at all |
